The test system of assay [1] is Plasmodium falciparum. Particulars: W2.
Description: (§1) Antiplasmodial activity against chloroquine-resistant Plasmodium falciparum W2 after 48 hrs
In assay [2] the test system is Plasmodium falciparum. Particulars: D6.
Description: (§2) Antiplasmodial activity against chloroquine-sensitive Plasmodium falciparum D6 after 48 hrs
In assay [3] the test system is Plasmodium falciparum. The assay can be described thus: microbe, parasite or virus in culture. Particulars: W2, 48 h.
Description: as §1
Assay [4] deals with Plasmodium falciparum. The assay can be described thus: microbe, parasite or virus in culture. Particulars: D6, 48 h.
Description: as §2

Calls of active or inactive are those of the source. No cut-off for these calls is given here.

In the case of `COc1ccc(C(CNC(=O)/C=C/c2ccccc2)OC(C)=O)cc1OC` (stereo not drawn), the outcome with Plasmodium falciparum [1] and in the assay on Plasmodium falciparum [2] was inactive.

On to `COc1ccc([C@H](CNC(=O)/C=C/c2ccccc2)C(=O)/C=C/c2ccccc2)cc1OC`, for which the IC50 (as a rule, the concentration that inhibits the measured activity by half) stood at 6.1 µM in the assay on Plasmodium falciparum [3] and 4.2 µM with Plasmodium falciparum [4].

For the molecule `COc1ccc(C(O)CNC(=O)/C=C/c2ccccc2)cc1OC` (stereo not drawn), the result in the assay on Plasmodium falciparum [1] and in the assay with Plasmodium falciparum [2] was inactive.

Turning to `C[C@@H]1CC[C@H]2[C@@H](C)C(=O)O[C@@H]3O[C@@]4(C)CC[C@@H]1[C@]32OO4` [ARTEMISININ], the IC50 with Plasmodium falciparum [3] came to 0.03 µM; in the assay on Plasmodium falciparum [4], 0.04 µM.
